Laboratory results published in patent US20190367516A1 (Bayer Pharma Aktiengesellschaft, priority 2015, published 2019).

The compounds below were run against T1, human M2 receptor (Homo sapiens, UniProt P08172). Conditions: Receptor activity EC50, M2-GIRK1/4 activation test, acetylcholine at EC20; allosteric potency; in some cases mean values from two or more determinations.
T1 sequence (P08172 1-466): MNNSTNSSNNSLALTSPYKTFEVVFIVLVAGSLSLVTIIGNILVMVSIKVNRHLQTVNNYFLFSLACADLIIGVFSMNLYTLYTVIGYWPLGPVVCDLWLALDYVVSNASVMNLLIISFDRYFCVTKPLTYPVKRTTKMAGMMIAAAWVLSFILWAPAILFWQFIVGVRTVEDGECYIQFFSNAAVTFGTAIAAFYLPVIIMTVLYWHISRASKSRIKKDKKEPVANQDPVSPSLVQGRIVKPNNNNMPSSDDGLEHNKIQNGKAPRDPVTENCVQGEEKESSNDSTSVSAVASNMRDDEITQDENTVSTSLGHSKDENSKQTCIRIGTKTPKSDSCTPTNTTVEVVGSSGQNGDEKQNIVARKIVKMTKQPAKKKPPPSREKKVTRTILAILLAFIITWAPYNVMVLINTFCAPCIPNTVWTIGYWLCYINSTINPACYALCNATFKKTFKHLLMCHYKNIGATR
From the text: Functional M2-GIRK1/4 Activation Test
The binding of orthosteric agonists (endogenous ligand: acetylcholine) to the M2 receptor leads to receptor activation or a change in conformation of the receptor in the manner of a shift in equilibrium in favour of the active receptor conformation.
The agonist-induced change in conformation of the M2 receptor results in a Gαi protein activation. […] Under physiological conditions, the result is then a selective efflux of potassium from the cell along the electrochemical gradient. […] The extent of hyperpolarization can therefore be regarded as a measure of the activation of the M2 receptor.
The test cell used is a recombinant CHO-DUKX cell line which has been stably transfected with cDNA coding for the human M2 receptor and with cDNA coding for both GIRK1/4 subunits (CHO-DUKX-M2-GIRK). The transmembrane potential, or the relative changes in the transmembrane potential as a function of substance addition or M2 activation, is determined by means of a voltage-sensitive dye (FLIPR Membrane Potential Assay Kit Blue, Molecular Devices # R8034) and the measurement of cell fluorescence using a proprietary fluorescence imaging instrument.
Determination of the Allosteric Potency of the Test Substances (EC50 Value)
The sowing medium consisted of MEM alpha medium (supplemented with 5% FCS, 2% Glutamax, no genticin).
For the particular measurement, the medium was removed and the cells were laden with the voltage-sensitive dye for at least 6 min at room temperature (30 μl of loading buffer per 384-well). This was followed, in a first measurement, by the determination of the fluorescence for the resting transmembrane potential for a period of 5 sec. Thereafter, 10 μl in each case of the test substances diluted in loading buffer were added, followed by a second measurement to determine the transmembrane potential for a period of 50 sec. Finally, the cells were admixed with 10 μl of agonist solution (acetylcholine dissolved in loading buffer). Acetylcholine was used at the concentration corresponding to the EC20, which had been determined in a preliminary test. The M2-mediated GIRK1/4 activation or hyperpolarization was then monitored in a third measurement over a period of 60 sec. The EC50 value (degree of allosteric potency of test compound) and the efficiency (measure of the boosting of the acetylcholine effect at an EC20 acetylcholine concentration) were determined with the aid of a 4-parameter logistic function (Hill function).
Work on `CC[C@@H](NC(=O)c1cn(-c2ccc(F)cc2F)c2nc(N3CCCC3=O)ccc2c1=O)C(F)(F)F` [Example 337, 1-(2,4-Difluorophenyl)-4-oxo-7-(2-oxopyrrolidin-1-yl)-N-[(2R)-1,1,1-trifluorobutan-2-yl]-1,4-dihydro-1,8-naphthyridine-3-carboxamide] yielded an EC50 of 36 nM.
`C[C@H](NC(=O)c1cn(-c2c(F)cc(F)cc2F)c2nc(N3CCNC3=O)ccc2c1=O)C(F)(F)F` [Example 341, 4-Oxo-7-(2-oxoimidazolidin-1-yl)-1-(2,4,6-trifluorophenyl)-N-[(2S)-1,1,1-trifluoropropan-2-yl]-1,4-dihydro-1,8-naphthyridine-3-carboxamide] showed an EC50 of 56 nM.
In the case of `CC[C@H](NC(=O)c1cn(-c2c(F)cc(F)cc2F)c2nc(N3CCNC3=O)ccc2c1=O)C(F)(F)F` [Example 343, 4-Oxo-7-(2-oxoimidazolidin-1-yl)-N-[(2S)-1,1,1-trifluorobutan-2-yl]-1-(2,4,6-trifluorophenyl)-1,4-dihydro-1,8-naphthyridine-3-carboxamide], the EC50 is reported as 25 nM.
With `CC[C@@H](NC(=O)c1cn(-c2ccc(F)cc2F)c2nc(N3CCCN(CC)C3=O)ccc2c1=O)C(F)(F)F` [Example 344, 1-(2,4-Difluorophenyl)-7-(3-ethyl-2-oxotetrahydropyrimidin-1(2H)-yl)-4-oxo-N-[(2R)-1,1-trifluorobutan-2-yl]-1,4-dihydro-1,8-naphthyridine-3-carboxamide] the EC50 was 54 nM.
`O=C(N[C@@H](C1CC1)C(F)(F)F)c1cn(-c2c(F)cccc2F)c2nc(N3C[C@@H](O)[C@H](O)C3)ccc2c1=O` [Example 345, N-[(1 S)-1-Cyclopropyl-2,2,2-trifluoroethyl]-1-(2,6-difluorophenyl)-7-[(3R,4R)-3,4-dihydroxypyrrolidin-1-yl]-4-oxo-1,4-dihydro-1,8-naphthyridine-3-carboxamide] showed an EC50 of 59 nM.
`CC[C@H](NC(=O)c1cn(-c2c(F)cccc2Cl)c2nc(N3C[C@@H](O)[C@H](O)C3)ccc2c1=O)C(F)(F)F` [Example 346, 1-(2-Chloro-6-fluorophenyl)-7-[(3R,4R)-3,4-dihydroxypyrrolidin-1-yl]-4-oxo-N-[(2S)-1,1-trifluorobutan-2-yl]-1,4-dihydro-1,8-naphthyridine-3-carboxamide] showed an EC50 of 50 nM.
In the case of `O=C(N[C@@H](C1CC1)C(F)(F)F)c1cn(-c2c(F)cccc2Cl)c2nc(N3C[C@@H](O)[C@H](O)C3)ccc2c1=O` [Example 347, 1-(2-Chloro-6-fluorophenyl)-N-[(1 S)-1-cyclopropyl-2,2,2-trifluoroethyl]-7-[(3R,4R)-3,4-dihydroxypyrrolidin-1-yl]-4-oxo-1,4-dihydro-1,8-naphthyridine-3-carboxamide], the EC50 is reported as 34 nM.
`CC[C@H](NC(=O)c1cn(-c2c(F)cccc2F)c2nc(N3C[C@@H](O)[C@H](O)C3)ccc2c1=O)C(F)(F)F` [Example 348, 1-(2,6-Difluorophenyl)-7-[(3R,4R)-3,4-dihydroxypyrrolidin-1-yl]-4-oxo-N-[(2S)-1,1,1-trifluorobutan-2-yl]-1,4-dihydro-1,8-naphthyridine-3-carboxamide] showed an EC50 of 61 nM.
`CC[C@H](NC(=O)c1cn(-c2c(F)cccc2Cl)c2nc(N3C[C@@H](O)CC3=O)ccc2c1=O)C(F)(F)F` [Example 351, 1-(2-Chloro-6-fluorophenyl)-7-[(4S)-4-hydroxy-2-oxopyrrolidin-1-yl]-4-oxo-N-[(2S)-1,1,1-trifluorobutan-2-yl]-1,4-dihydro-1,8-naphthyridine-3-carboxamide] showed an EC50 of 17 nM.
`O=C(N[C@@H](C1CC1)C(F)(F)F)c1cn(-c2c(F)cccc2Cl)c2nc(N3C[C@@H](O)CC3=O)ccc2c1=O` [Example 352, 1-(2-Chloro-6-fluorophenyl)-N-[(1S)-1-cyclopropyl-2,2,2-trifluoroethyl]-7-[(4S)-4-hydroxy-2-oxopyrrolidin-1-yl]-4-oxo-1,4-dihydro-1,8-naphthyridine-3-carboxamide] was tested, and the EC50 was 17 nM.
In the case of `C[C@@H](COC(F)(F)F)NC(=O)c1cn(-c2c(F)cc(F)cc2F)c2nc(N3C[C@@H](O)[C@H](O)C3)ccc2c1=O` [Example 353, 7-[(3R,4R)-3,4-Dihydroxypyrrolidin-1-yl]-4-oxo-N-[(2S)-1-(trifluoromethoxy)propan-2-yl]-1-(2,4,6-trifluorophenyl)-1,4-dihydro-1,8-naphthyridine-3-carboxamide], the EC50 is reported as 50 nM.
`CC[C@@H](NC(=O)c1cn(-c2ccc(F)cc2F)c2nc(N3CCC4CC4(O)C3)ccc2c1=O)C(F)(F)F` (stereo partly drawn) [Example 354, 1-(2,4-Difluorophenyl)-7-[1-hydroxy-3-azabicyclo[4.1.0]hept-3-yl]-4-oxo-N-[(2R)-1,1,1-trifluorobutan-2-yl]-1,4-dihydro-1,8-naphthyridine-3-carboxamide] gave an EC50 of 38 nM.
`CC[C@@H](NC(=O)c1cn(-c2ccc(F)cc2F)c2nc(N3CC(O)C4(CC4)C3)ccc2c1=O)C(F)(F)F` (stereo partly drawn) [Example 355, 1-(2,4-Difluorophenyl)-7-[7-hydroxy-5-azaspiro[2.4]hept-5-yl]-4-oxo-N-[(2R)-1,1,1-trifluorobutan-2-yl]-1,4-dihydro-1,8-naphthyridine-3-carboxamide] was tested, and the EC50 was 85 nM.
`CC[C@@H](NC(=O)c1cn(-c2ccc(F)cc2F)c2nc(N3CC(O)C(C)(C)C3)ccc2c1=O)C(F)(F)F` (stereo partly drawn) [Example 356, 1-(2,4-Difluorophenyl)-7-[4-hydroxy-3,3-dimethylpyrrolidin-1-yl]-4-oxo-N-[(2R)-1,1,1-trifluorobutan-2-yl]-1,4-dihydro-1,8-naphthyridine-3-carboxamide] gave an EC50 of 94 nM.
`CC(C)(C)[C@H](NC(=O)c1cn(-c2c(F)cc(F)cc2F)c2nc(N3CCNC3=O)ccc2c1=O)C(F)(F)F` [Example 359, 4-Oxo-7-(2-oxoimidazolidin-1-yl)-N-[(2S)-1,1,1-trifluoro-3,3-dimethylbutan-2-yl]-1-(2,4,6-trifluorophenyl)-1,4-dihydro-1,8-naphthyridine-3-carboxamide] was tested, and the EC50 was 13 nM.
With `CC(C)(C)[C@@H](NC(=O)c1cn(-c2c(F)cc(F)cc2F)c2nc(N3CCN(CCO)C3=O)ccc2c1=O)C(F)(F)F` [Example 361, 7-[3-(2-Hydroxyethyl)-2-oxoimidazolidin-1-yl]-4-oxo-N-[(2R)-1,1,1-trifluoro-3,3-dimethylbutan-2-yl]-1-(2,4,6-trifluorophenyl)-1,4-dihydro-1,8-naphthyridine-3-carboxamide] the EC50 was 17 nM.
Work on `O=C(NC12CC(F)(C1)C2)c1cn(-c2c(F)cc(F)cc2F)c2nc(N3C[C@@H](O)CC3=O)ccc2c1=O` [Example 367, N-(3-Fluorobicyclo[1.1.1]pent-1-yl)-7-[(4S)-4-hydroxy-2-oxopyrrolidin-1-yl]-4-oxo-1-(2,4,6-trifluorophenyl)-1,4-dihydro-1,8-naphthyridine-3-carboxamide] yielded an EC50 of 100 nM.
`O=C(NC12CC(F)(C1)C2)c1cn(-c2c(F)cc(F)cc2F)c2nc(N3C[C@@H](O)[C@H](O)C3)ccc2c1=O` [Example 368, 7-[(3R,4R)-3,4-Dihydroxypyrrolidin-1-yl]-N-(3-fluorobicyclo[1.1.1]pent-1-yl)-4-oxo-1-(2,4,6-trifluorophenyl)-1,4-dihydro-1,8-naphthyridine-3-carboxamide] gave an EC50 of 91 nM.
In the case of `O=C(N[C@@H](C1CC1)C(F)(F)F)c1cn(-c2c(F)cc(F)cc2F)c2nc(N3CCNS3(=O)=O)ccc2c1=O` [Example 373, N-[(1 S)-1-Cyclopropyl-2,2,2-trifluoroethyl]-7-(d1,1-dioxido-1,2,5-thiadiazolidin-2-yl)-4-oxo-1-(2,4,6-trifluorophenyl)-1,4-dihydro-1,8-naphthyridine-3-carboxamide], the EC50 is reported as 89 nM.
`O=C(N[C@@H](C1CC1)C(F)(F)F)c1cn(-c2c(F)cc(F)cc2F)c2nc(N3CCOC3=O)ccc2c1=O` [Example 374, N-[(1S)-1-Cyclopropyl-2,2,2-trifluoroethyl]-4-oxo-7-(2-oxo-1,3-oxazolidin-1.3-yl)-1-(2,4,6-trifluorophenyl)-1,4-dihydro-1,8-naphthyridine-3-carboxamide] showed an EC50 of 49 nM.
`CC(C)(CC(F)(F)F)NC(=O)c1cn(-c2c(F)cc(F)cc2F)c2nc(N3CCN(CCO)C3=O)ccc2c1=O` [Example 375, 7-[3-(2-Hydroxyethyl)-2-oxoimidazolidin-1-yl]-4-oxo-N-(4,4,4-trifluoro-2-methylbutan-2-yl)-1-(2,4,6-trifluorophenyl)-1,4-dihydro-1,8-naphthyridine-3-carboxamide] gave an EC50 of 40 nM.
With `CC(C)(CC(F)(F)F)NC(=O)c1cn(-c2c(F)cc(F)cc2F)c2nc(N3CCNC3=O)ccc2c1=O` [Example 376, 4-Oxo-7-(2-oxoimidazolidin-11-yl)-N-(4,4,4-trifluoro-2-methylbutan-2-yl)-1-(2,4,6-trifluorophenyl)-1,4-dihydro-1,8-naphthyridine-3-carboxamide] the EC50 was 16 nM.
Compound `C[C@@H](O)CNc1ccc2c(=O)c(C(=O)N[C@@H](C3CC3)C(F)(F)F)cn(-c3c(F)cc(F)cc3F)c2n1` [Example 378, N-[(1S)-1-Cyclopropyl-2,2,2-trifluoroethyl]-7-{[(2R)-2-hydroxypropyl]amino}-4-oxo-1-(2,4,6-trifluorophenyl)-1,4-dihydro-1,8-naphthyridine-3-carboxamide] has an EC50 of 81 nM.
For `CC(C)(NC(=O)c1cn(-c2c(F)cc(F)cc2F)c2nc(N3C[C@@H](O)[C@H](O)C3)ccc2c1=O)C1CC1` [Example 379, N-(2-Cyclopropylpropan-2-yl)-7-[(3R,4R)-3,4-dihydroxypyrrolidin-1-yl]-4-oxo-1-(2,4,6-trifluorophenyl)-1,4-dihydro-1,8-naphthyridine-3-carboxamide], the EC50 was 35 nM.
